Tests used:
[1] = tested on: Micrococcus luteus Q24; assay: Inhibition by potential prebiotics, spot on lawned CABK12 agar (prebiotic MIC); format: cell-based; details: 24 hours 37° C. 5% CO2; for Suitable to be used in Q24 containing product?: aqueous substances 100% to 0.3%, oils 100% only
Experimental: CABK12 agar plates were split into segments of 6 and […] suspension of Micrococcus luteus […] raw ingredient. Each of the aqueous potential prebiotic substances to be screened were serially diluted in a range of concentrations from 100% to 0.3% using sterile distilled water. Oil based substances were tested at 100% only. 20 μL of each concentration, of each substance were pipetted into a spot onto one segment of the […]12 agar plate and was incubated for 24 hours at 37° C. 5% CO2 in air.

[2] = tested on: IL-8 (CXCL8); assay: EpiDerm safety and efficacy experiment, cytokine quantification IL-8; format: cell-based, human; details: daily treatment 4 days; Q24 1×10^8 CFU/ml, vitamin C 50 μg/mL
Experimental: (§1) The remaining 6 tissues, which were destined for histology or else to receive 5% SDS, were grouped together on the sixth cell culture plate. […] Vitamin C (50 μg/mL) was instead delivered in the culture medium. On day 4 conditioned media samples were collected and stored frozen at −80° C. for cytokine measurement. 33 of the tissues were then exposed for 30 μL of 0.5% or 5% SDS in PBS, or to PBS as negative control. […] The remaining 3 tissues (destined for histology) were simply fed fresh medium and given the appropriate main treatment. […] All tissues were gently rinsed with PBS and the 3 histology tissues were fixed in neutral buffered formalin. The viabilities of the other 33 tissues were assessed using the MTT viability assay.
(§2) For quantification of IL-1β, IFN-α2, IFN-γ, TNF-α, MCP-1 (CCL2), IL-6, IL-8 (CXCL8), IL-10, IL-12p70, IL-17A, IL-18, IL-23, and IL-33, bead-based multiplex LEGENDplex™ analysis (LEGENDplex™ Human Inflammation Panel 1 (13-plex); BioLegend, San Diego, CA, USA) was used according to the manufacturer's instructions. The relevance of each of the measured cytokines for which activity was observed is described in Table 6. Reactions were performed in duplicate. Analysis was performed with the Cytek™ Aurora flow cytometer (Cytek Biosciences Inc., Fremont, CA, USA). Data were analysed via Legendplex V8.0 software (BioLegend) and specified as pg/mL.

[3] = tested on: IL-18; assay: EpiDerm safety and efficacy experiment, cytokine quantification IL-18; format: cell-based, human; details: daily treatment 4 days; Q24 1×10^8 CFU/ml, vitamin C 50 μg/mL
Experimental: as §1, §2

[4] = tested on: IL-6; assay: EpiDerm safety and efficacy experiment, cytokine quantification IL-6; format: cell-based, human
Experimental: as §1, §2

[5] = tested on: Micrococcus luteus Q24; assay: Effect of prebiotics on the growth of Micrococcus luteus Q24 in M17 broth; format: cell-based; details: at 24 hours
Experimental: A batch of M17 broth (Difco #218561) was made, excluding the lactose solution, by following the manufacturer's instructions. 50 ml of broth was dispensed into sterile 100 ml Schott bottles and 2.5 g (5% w/v) of each potential prebiotic substance was added and mixed well using a magnetic stirrer and stir plate. The mixtures were autoclaved at 110° C. for 10 minutes and allowed to cool.
The suspensions of the prebiotic candidates were prewarmed to 40° C. in order to allow for increased homogenisation of any oil-based components prior to dispensing into the wells. 2 ml of each suspension and an M17 only (control) were pipetted into a sterile 24 well tissue culture plate. […] 100 μl of the suspension was pipetted into each well. Once the suspension was added each well was mixed by aspirating and dispensing the solution 5 times with a 1 ml pipette.
Each sample was enumerated at time points 0, 3, 6, 15, 26 and 34 hours using the following method. […] The number of colonies in each spot were then counted using an electronic colony counter and average to give the final result.
The same method was used as described above except the time points tested were 0, 6, 18 and 24 hours. Olive squalene was selected as one of the preferred prebiotics with 3 others that were analysed in combination with olive squalene and compared to the results of the prebiotic candidates alone (FIG. 17).

Compound | Suitable to be used in Q24 containing product? [1] | other results
Hyaluronic acid | Yes | 
Cc1c(C)c2c(c(C)c1O)CC[C@@](C)(CCC[C@H](C)CCC[C@H](C)CCCC(C)C)O2 [Vitamin E, D Alpha Tocopherol 1000 IU, D Alpha Tocopherol] | Yes | 
CC(O)C(=O)O (centres unmarked) [Lactic acid (LA), Lactic acid] | No | Inhibitory concentration against Micrococcus luteus Q24 [1]: > 2.5%
NC(=O)c1cccnc1 [Niacinamide] | Yes | 
O=C1O[C@H]([C@@H](O)CO)C(O)=C1O [vitamin C, Ascorbic acid] | Yes | IL-8 levels day 4 vs day 0 [2]: unchanged; IL-18 levels day 4 vs day 0 [3]: trend for lower values on day 4; IL-6 levels day 4 vs day 0 ([4]; daily treatment 4 days, Q24 1×10^8 CFU/ml, vitamin C 50 μg/mL): slight but significant increase on day 4; IL-6 released in response to 0.5% SDS ([4]; pre-treatment 4 days, day 5 vs day 4): slight increase on day 5
OC[C@@H](O)[C@H](O)[C@@H](O)CO [Xylitol] | Yes | Effect on live Micrococcus luteus Q24 cell count [5]: detrimental
CC1=C(/C=C/C(C)=C/C=C/C(C)=C/CO)C(C)(C)CCC1 [Retinol (Vitamin A), Retinol] | Yes | 
O=C(O)c1ccccc1O [Salicylic acid (SA), Salicylic acid] | No | Inhibitory concentration against Micrococcus luteus Q24 [1]: > 5%
CC(C)=CCC/C(C)=C/CC/C(C)=C/CC/C=C(\C)CC/C=C(\C)CCC=C(C)C [Olive Squalene] | Yes | 
NC(=O)NC1NC(=O)NC1=O (centres unmarked) [Allantoin] | Yes | 

Reference: patent US20260069529A1 (BLIS TECHNOLOGIES LIMITED, priority 2022, published 2026)
